# Source: ChEMBL document CHEMBL1158461, “The role of amphiphilicity and negative charge in glycoprotein 41 interactions in the hydrophobic pocket” (J Med Chem, 2009)
# Assay: Displacement of C27-Aib-lucifer yellow from HIV1 envelope glycoprotein gp41 Fe(env3.0)3 receptor by fluorescence assay
# Design: species or system Human immunodeficiency virus 1
row,Ki [nM],SMILES
1,1200,CC[C@@H](C)[C@H](NC(=O)[C@H](CCC(=O)O)NC(=O)[C@H](CCCNC(=N)N)NC(=O)[C@H](CC(=O)O)NC(=O)[C@H](Cc1c[nH]c2ccccc12)NC(=O)[C@H](CCC(=O)O)NC(=O)C(C)(C)NC(=O)[C@H](Cc1c[nH]c2ccccc12)NC(=O)[C@@H](NC(=O)[C@@H](NC(=O)[C@H](Cc1cnc[nH]1)NC(=O)[C@H](CC(N)=O)NC(=O)[C@H](Cc1c[nH]c2ccccc12)NC(=O)C(C)(C)NC(=O)[C@H](CCC(N)=O)NC(=O)[C@H](CCC(=O)O)NC(=O)[C@H](CC(C)C)NC(=O)[C@H](CO)NC(=O)[C@H](CCCCN)NC(C)=O)[C@@H](C)O)[C@@H](C)O)C(=O)NC(C)(C)C(=O)N[C@@H](CC(N)=O)C(=O)N[C@@H](Cc1ccc(O)cc1)C(=O)N[C@H](C(=O)N[C@@H](CO)C(=O)N[C@@H](CC(C)C)C(=O)N[C@H](C(=O)N[C@@H](CS)C(N)=O)[C@@H](C)CC)[C@@H](C)O

# Assay: Displacement of C32-Aib-fluorescein from HIV1 envelope glycoprotein gp41 Fe(env5.0)3 receptor by fluorescence assay
# Design: species or system Human immunodeficiency virus 1
row,Ki [nM],SMILES
1,7,CC[C@H](C)[C@H](NC(=O)[C@H](C)NC(=O)[C@H](CCCNC(=N)N)NC(=O)[C@H](CC(=O)O)NC(=O)[C@H](Cc1c[nH]c2ccccc12)NC(=O)[C@H](C)NC(=O)[C@H](CCC(=O)O)NC(=O)[C@H](Cc1c[nH]c2ccccc12)NC(=O)[C@@H](NC(=O)[C@@H](NC(C)=O)[C@H](C)O)[C@H](C)O)C(=O)N[C@@H](C)C(=O)N[C@@H](CCC(=O)O)C(=O)N[C@@H](Cc1ccc(O)cc1)C(=O)N[C@@H](C)C(=O)N[C@@H](C)C(=O)N[C@@H](CCCNC(=N)N)C(=O)N[C@H](C(=O)N[C@@H](CCC(=O)O)C(=O)N[C@@H](C)C(=O)N[C@@H](CC(C)C)C(=O)N[C@H](C(=O)N[C@@H](CCCNC(=N)N)C(=O)N[C@@H](C)C(=O)N[C@@H](C)C(=O)N[C@@H](CCC(N)=O)C(=O)N[C@@H](CCC(=O)O)C(=O)N[C@@H](CCC(N)=O)C(=O)N[C@@H](CCC(N)=O)C(=O)N[C@@H](CCC(=O)O)C(=O)N[C@@H](CCCCN)C(=O)N[C@@H](CC(N)=O)C(=O)N[C@@H](CS)C(N)=O)[C@@H](C)CC)[C@@H](C)CC

# Assay: Critical micellar concentration of the compound
row,CMC,SMILES
1,25000 µM,CCCCCCCCCCS(=O)(=O)[O-].[Na+]
2,> 250000 µM,CCCCCCCCS(=O)(=O)[O-].[Na+]
3,<= 100 uM,CCCCCCCCCCCCCCCCS(=O)(=O)[O-].[Na+]
4,600 µM,CCCCCCCCCCCCCCS(=O)(=O)[O-].[Na+]
5,5000 µM,CCCCCCCCCCCCS(=O)(=O)[O-].[Na+]
6,200000 µM,CCCCCCCC(=O)[O-].[Na+] [SODIUM CAPRYLATE]
7,15000 µM,CCCCCCCCCCOS(=O)(=O)[O-].[Na+] [SODIUM DECYL SULFATE]
8,2500 µM,CCCCCCCCCCCC(=O)[O-].[Na+] [SODIUM DODECANOATE]
9,2000 µM,CCCCCCCCCCCCOS(=O)(=O)[O-].[Na+] [SODIUM LAURYL SULFATE]
10,< 100 µM,CCCCCCCCCCCCCCCCCCOS(=O)(=O)[O-].[Na+] [SODIUM OCTADECYL SULFATE]
11,30000 µM,CCCCCCCCOS(=O)(=O)[O-].[Na+] [SODIUM OCTYL SULFATE]
12,150 µM,CCCCC(CC)CCC(CC(C)C)OS(=O)(=O)[O-].[Na+] (stereo not given) [SODIUM TETRADECYL SULFATE]
13,600 µM,CCCCCCCCCCCCCOS(=O)(=O)[O-].[Na+] [SODIUM TRIDECYL SULFATE]
